Data on three compounds can be found in patent US8609590B2, “Synergistic combination of flumetsulam with thiabendazole” (Dow Global Technologies LLC, priority 2010, dated 2013).

Type in all cases: cell-based
Experiment [1] relates to Aa + Tv + An + Pf + Ap + Ch. As to the kind of experiment: Fungal efficacy testing, modified ASTM 5590, paint film (Diclosulam study, single fungal pool). The following applies: for % inhibition: at the total conc given for the same sample; for Total conc: end-point concentration in paint used for SI. The procedure:
(§1) Sample preparation: A single or blend of biocides was post added into white acrylic latex paint free of biocides to give a maximum total active ingredient/s concentration tested. This paint was then diluted with a biocide free acrylic latex paint to give targeted concentrations for the testing. Depending on the type of biocide blends tested, the total biocides concentrations varies from 200 to 5000 ppm. After biocides addition or dilution, each sample was hand mixed for at least a minute until uniformity is achieved. Each of the paint samples as well as a control sample (containing no biocide) were used to prepare films on black plastic-vinyl chloride/acetate copolymer panels (LENETA, Mahwah, N.J.) using a 3 mil (0.0762 mm) bird bar applicator. The panels were thoroughly dried for at least 2 days avoiding direct exposure to sunlight. Square discs (0.5 inch; 1.27 cm^2) were cut out from each panel and were used as the substrate for fungal and algal efficacy tests. This sample size allowed for an agar border when the sample disc was placed into the well of the test plate. Each sample was tested in duplicate
(§2) The appropriate media (BOLD'S 3N for Chlorophytes, BG-11 for Cyanobacteria, and PDA for fungi) were used to support microbial growth. The test plates were maintained at room temp (25° C.-26° C.), in a cycled light-dark environment, for four weeks for algae. Plates for fungal challenge tests were maintained at 30 C for four weeks. At the end of the incubation period the samples were scored for percent area covered by visible microbial growth.
ASTM 5590 is a standard accelerated test method for determining resistance of various coatings (including paints) to fungal defacement. To accommodate for high-throughput screening, this method was scaled down from petri plates to 6-well plates. To set up the test, an agar plug was placed at the bottom of each well of the sterile 6-well plate. A single coupon was placed with a pair of sterile forceps at the center of the agar plug (on top) with the painted surface facing upwards. Fungal inoculums were prepared by mixing equal concentrations (1×10^6 cfu/ml) and equal volumes (depending on number of samples to be tested) of like growing organisms. For Flumetsulam+various IT synergy study, three pools of mixed fungi were prepared as the test inoculum. Cladosporium herbarum was mixed with Aureobasidium pullulans; Aspergillus niger was mixed with Penicillium funiculosum and Alternaria alternata was mixed with Trichoderma viride. For Diclosulam+various IT synergy study, all above fungi were mixed as a single pool. […] The total percent area covered was evaluated and recorded at the end of each week after the 2nd week and recorded in increments of 5%.
(§3) The SI is calculated based on F. C. […]

In experiment [2] the test system is Cp + To + Ta + Cs + Ck + Nc. As to the kind of experiment: Algal efficacy testing, modified ASTM 5589, paint film (Diclosulam study). The following applies: for % inhibition: at the total conc given for the same sample; for Total conc: end-point concentration in paint used for SI. The procedure: as §1, §2
(§4) ASTM 5589 is a standard accelerated test method for determining resistance of various coatings (including paints) to algal defacement. To accommodate for high-throughput screening, this method was scaled down from petri plates to 6-well plates. A single coupon was placed with a pair of sterile forceps at the center of the agar plug (on top) with the painted surface facing upwards. Algal inoculums were prepared by mixing equal concentrations (1×10^6 cfu/ml) and equal volumes (depending on number of samples to be inoculated) of like growing organisms.
(§5) In Diclosulam+various IT synergy study, only two pools of mixed algae were prepared; Gloeocapsa sp. and Oscillatoria sp. grown on BG-11 media and Chlorella sp., Chlorella kessleri, Nostoc commune, Trentepohlia aurea, Tretepohlia odorata, and Calotrix parientina grown on Bold media
Each well that contains a tested coupon was inoculated with 400 μl of organism mixture (1×10^6 cfu/ml) making sure that the whole surface (paint film as well as the agar surrounding it) was evenly covered. […] The total area covered was evaluated at the end of each week according to percent area covered in 5% increments.
as §3

The test system of experiment [3] is Gloeocapsa sp. and Oscillatoria sp. (Gs + Os). As to the kind of experiment: Algal efficacy testing, modified ASTM 5589, paint film. The following applies: for % inhibition: at the total conc given for the same sample; for Total conc: end-point concentration in paint used for SI. The procedure:
as §1, §2, §4
(§6) In Flumetsulam+various IT synergy study, three pool of mixed algae were prepared as the test inoculum, Gloeocapsa sp. and Oscillatoria sp. a mix of cyanobacteria grown on BG-11 media; Chlorella sp., Chlorella kessleri, and Nostoc commune are unicellular chlorphytes that were mixed and grown on Bold media; Trentepohlia aurea, Tretepohlia odorata, and Calotrix parientina are filamentous algae that were mixed and grown on Bold media.
as §5
(§7) Each well that contains a tested coupon was inoculated with 400 μl of organism mixture (1×10^6 cfu/ml) making sure that the whole surface (paint film as well as the agar surrounding it) was evenly covered. The plates were incubated at room temp (25° C.-26° C.) with cyclic exposure to light (OTT-Lite model # OTL4012P, 40 Watt, 26 KLumen) and dark phases, for a period of four weeks. The total area covered was evaluated at the end of each week according to percent area covered in 5% increments.
(§8) The SI is calculated based on F. C. Kull et.

For experiment [4], the system named is Cladosporium herbarum mixed with Aureobasidium pullulans (ApCh). As to the kind of experiment: Fungal efficacy testing, modified ASTM 5590, paint film (Flumetsulam study). The following applies: for % inhibition: at the total conc given for the same sample; for Total conc: end-point concentration in paint used for SI, four weeks, 30 C. The procedure:
as §1, §2
(§9) ASTM 5590 is a standard accelerated test method for determining resistance of various coatings (including paints) to fungal defacement. To accommodate for high-throughput screening, this method was scaled down from petri plates to 6-well plates. To set up the test, an agar plug was placed at the bottom of each well of the sterile 6-well plate. A single coupon was placed with a pair of sterile forceps at the center of the agar plug (on top) with the painted surface facing upwards. Fungal inoculums were prepared by mixing equal concentrations (1×10^6 cfu/ml) and equal volumes (depending on number of samples to be tested) of like growing organisms. For Flumetsulam+various IT synergy study, three pools of mixed fungi were prepared as the test inoculum. Cladosporium herbarum was mixed with Aureobasidium pullulans; Aspergillus niger was mixed with Penicillium funiculosum and Alternaria alternata was mixed with Trichoderma viride. For Diclosulam+various IT synergy study, all above fungi were mixed as a single pool. Each well was inoculated with 400 μl of organism mixture (1×10^6 cfu/ml) making sure that the whole surface (paint film as well as the agar surrounding it) was evenly covered. The plates were incubated at 30° C. in presence of moisture, for a period of four weeks. The total percent area covered was evaluated and recorded at the end of each week after the 2nd week and recorded in increments of 5%.
as §8

The test system of experiment [5] is Alternaria alternata mixed with Trichoderma viride (AaTv). The description is as above. The following applies: for % inhibition: at the total conc given for the same sample; for Total conc: end-point concentration in paint used for SI, four weeks, 30 C. As to the method: as §1, §2, §9, §8
For experiment [6], the system named is Aspergillus niger mixed with Penicillium funiculosum (AnPf). Described as above. The following applies: for % inhibition: at the total conc given for the same sample; for Total conc: end-point concentration in paint used for SI, four weeks, 30 C. As to the method: as §1, §2, §9, §8
Experiment [7] deals with Chlorella sp., Chlorella kessleri, and Nostoc commune (Cs + Ck + Nc). As to the kind of experiment: Algal efficacy testing, modified ASTM 5589, paint film (Flumetsulam study). The following applies: for % inhibition: at the total conc given for the same sample; for Total conc: end-point concentration in paint used for SI, four weeks. The procedure:
as §1, §2, §4, §6, §7, §8

The subject of experiment [8] is Trentepohlia aurea, Tretepohlia odorata, and Calotrix parientina (Cp + To + Ta). The experiment is described as above. Conditions: for % inhibition: at the total conc given for the same sample; for Total conc: end-point concentration in paint used for SI, four weeks. The procedure:
as §1, §2, §4, §6, §7, §8

As for `CCOc1nc(F)cc2nc(S(=O)(=O)Nc3c(Cl)cccc3Cl)nn12` [Diclosulam, N-(2,6-dichlorophenyl)-5-ethoxy-7-fluoro[1,2,4]triazolo[1,5-c]pyrimidine-2-sulfonamide], the % inhibition (commonly the change of the read-out against control, counted positive when it falls) in experiment [1] is 0%; in experiment [2] it was 100%; in experiment [3] (Diclosulam study), 90%. Also, the results for the Total conc in experiment [1], in experiment [2] and in experiment [3] (Diclosulam study) were 3500 ppm, 1750 ppm and 875 ppm, respectively.

For the compound `c1ccc2[nH]c(-c3cscn3)nc2c1` [TBZ, thiabendazole], the “% inhibition” value worked out at 60% in experiment [1]; 100% in experiment [2]; 100% in experiment [4]; 100% in experiment [5]; 100% in experiment [6]; 100% in experiment [7]. For the same compound, the “% inhibition” value in experiment [8] was 90%; in experiment [3] (Diclosulam study) it was 85%; in experiment [3] (Flumetsulam study) it was 85%. Moreover, the Total conc in experiment [1] came out at 625 ppm; in experiment [2], 1250 ppm; in experiment [4], 625 ppm; in experiment [5], 625 ppm; in experiment [6], 625 ppm; in experiment [7] it was 2500 ppm. Moreover, the Total conc in experiment [8] was 3750 ppm; in experiment [3] (Diclosulam study), 1250 ppm; in experiment [3] (Flumetsulam study, four weeks) it was 3750 ppm.

Take `Cc1ccn2nc(S(=O)(=O)Nc3c(F)cccc3F)nc2n1` [Flumetsulam, N-(2,6-difluorophenyl)-5-methyl[1,2,4]triazolo[1,5-a]pyrimidine-2-sulfonamide]: the “% inhibition” value in experiment [4] was 50%; in experiment [5], 0%; in experiment [6] it was 90%; in experiment [7], 100%; in experiment [8], 75%; in experiment [3] (Flumetsulam study), 90%. The Total conc is reported as 3500 ppm in experiment [4]; 3500 ppm in experiment [5]; 1750 ppm in experiment [6]; 2625 ppm in experiment [7]; 1750 ppm in experiment [8]; 2625 ppm in experiment [3] (Flumetsulam study, four weeks).
